Activity calls are given as the source filed them. The calls are words filed in the database; no cut-off is given here.
Key:
[1] = Metabolic stability in rat liver microsomes assessed as parent compound remaining after 30 mins in presence of NADPH by HPLC analysis; assay type: ADME, microsome; details: read-out: Stability
[2] = Selectivity index, ratio of IC50 for human HL7702 cells to IC50 for human SKBR3 cells; assay type: toxicity; details: HL7702 cells versus SKBR3 cells, read-out: Ratio IC50
MDA-MB-231 [3] = assay: Induction of apoptosis in human MDA-MB-231 cells assessed as cleaved PARP protein expression up to 1 uM after 48 hrs by Western blot analysis; assay type: functional, cell-based
[4] = Half life in mouse liver microsomes in presence of NADPH by HPLC analysis; assay type: ADME, microsome
[5] = Metabolic stability in rat liver microsomes assessed as parent compound remaining after 180 mins in presence of NADPH by HPLC analysis; assay type: ADME, microsome; details: read-out: Stability
[6] = Metabolic stability in dog liver microsomes assessed as parent compound remaining after 90 mins in presence of NADPH by HPLC analysis; assay type: ADME, Canis lupus familiaris, microsome; details: read-out: Stability
[7] = Selectivity index, ratio of IC50 for human HL7702 cells to IC50 for human U251 cells; assay type: toxicity; details: HL7702 cells versus U251 cells, read-out: Ratio IC50
[8] = Cytotoxicity against human […] cells assessed as reduction in cell viability after 72 hrs by MTT assay; assay type: functional, cell-based
[9] = Metabolic stability in rat liver microsomes assessed as parent compound remaining after 150 mins in presence of NADPH by HPLC analysis; assay type: ADME, microsome; details: read-out: Stability
[10] = Metabolic stability in rat liver microsomes assessed as parent compound remaining after 120 mins in presence of NADPH by HPLC analysis; assay type: ADME, microsome; details: read-out: Stability
MDA-MB-231 [11] = assay: Induction of apoptosis in human MDA-MB-231 cells assessed as late apoptotic cells at 1 uM after 24 hrs by Annexin V-FITC/propidium iodide staining based flow cytometry (reference value: 2.97%); assay type: functional
[12] = Metabolic stability in rat liver microsomes assessed as parent compound remaining after 90 mins in presence of NADPH by HPLC analysis; assay type: ADME, microsome; details: read-out: Stability
[13] = Metabolic stability in mouse liver microsomes assessed as parent compound remaining after 150 mins in presence of NADPH by HPLC analysis; assay type: ADME, microsome; details: read-out: Stability
[14] = Selectivity index, ratio of IC50 for HFF cells to IC50 for human HCT116 cells; assay type: toxicity; details: HFF cells versus HCT116 cells, read-out: Ratio IC50
[15] = Selectivity index, ratio of IC50 for human HL7702 cells to IC50 for human A549 cells; assay type: toxicity; details: HL7702 cells versus A549 cells, read-out: Ratio IC50
MDA-MB-231 [16] = assay: Cytotoxicity against human MDA-MB-231 cells assessed as reduction in cell viability after 72 hrs by MTT assay; assay type: functional, cell-based; details: MDA-MB-231, 72 h
[17] = Metabolic stability in dog liver microsomes assessed as parent compound remaining after 60 mins in presence of NADPH by HPLC analysis; assay type: ADME, Canis lupus familiaris, microsome; details: read-out: Stability
[18] = Selectivity index, ratio of IC50 for human HL7702 cells to IC50 for human HCT116 cells; assay type: toxicity; details: HL7702 cells versus HCT116 cells, read-out: Ratio IC50
[19] = Selectivity index, ratio of IC50 for HFF cells to IC50 for human U251 cells; assay type: toxicity; details: HFF cells versus U251 cells, read-out: Ratio IC50
MDA-MB-231 [20] = assay: Induction of apoptosis in human MDA-MB-231 cells assessed as dead cells at 0.1 uM after 24 hrs by Annexin V-FITC/propidium iodide staining based flow cytometry (reference value: 2.15%); assay type: functional
SK-BR-3 = assay: Cytotoxicity against human SKBR3 cells assessed as reduction in cell viability after 72 hrs by MTT assay; assay type: functional, cell-based; details: SK-BR-3, 72 h
[21] = Metabolic stability in mouse liver microsomes assessed as parent compound remaining after 60 mins in presence of NADPH by HPLC analysis; assay type: ADME, microsome; details: read-out: Stability
U-251 = assay: Cytotoxicity against human U251 cells assessed as reduction in cell viability after 72 hrs by MTT assay; assay type: functional, cell-based; details: U-251, 72 h
[22] = Metabolic stability in dog liver microsomes assessed as parent compound remaining after 30 mins in presence of NADPH by HPLC analysis; assay type: ADME, Canis lupus familiaris, microsome; details: read-out: Stability
HCT-116 = assay: Cytotoxicity against human HCT116 cells assessed as reduction in cell viability after 72 hrs by MTT assay; assay type: functional, cell-based; details: HCT-116, 72 h
A549 [23] = assay: Cytotoxicity against human A549 cells assessed as reduction in cell viability after 72 hrs by MTT assay; assay type: functional, cell-based; details: A549, 72 h
MDA-MB-231 [24] = assay: Induction of apoptosis in human MDA-MB-231 cells assessed as early apoptotic cells at 0.1 uM after 24 hrs by Annexin V-FITC/propidium iodide staining based flow cytometry (reference value: 2.33%); assay type: functional
LNCaP = assay: Cytotoxicity against human LNCAP cells assessed as reduction in cell viability after 72 hrs by MTT assay; assay type: functional, cell-based
MDA-MB-231 [25] = assay: Induction of apoptosis in human MDA-MB-231 cells assessed as upregulation of Bax protein expression after 48 hrs by Western blot analysis; assay type: functional, cell-based
[26] = Metabolic stability in dog liver microsomes assessed as parent compound remaining after 120 mins in presence of NADPH by HPLC analysis; assay type: ADME, Canis lupus familiaris, microsome; details: 2 h
[27] = Selectivity index, ratio of IC50 for HFF cells to IC50 for human LNCAP cells; assay type: toxicity; details: HFF cells versus LNCAP cells, read-out: Ratio IC50
[28] = Octanol-water partition coefficient, log P of the compound; assay type: physicochemical
MDA-MB-231 [29] = assay: Induction of apoptosis in human MDA-MB-231 cells assessed as dead cells at 1 uM after 24 hrs by Annexin V-FITC/propidium iodide staining based flow cytometry (reference value: 2.15%); assay type: functional
MDA-MB-231 [30] = assay: Induction of apoptosis in human MDA-MB-231 cells assessed as downregulation of Bcl2 protein expression after 48 hrs by Western blot analysis; assay type: functional, cell-based
[31] = Metabolic stability in mouse liver microsomes assessed as parent compound remaining after 90 mins in presence of NADPH by HPLC analysis; assay type: ADME, microsome; details: read-out: Stability
MDA-MB-231 [32] = assay: Induction of apoptosis in human MDA-MB-231 cells assessed as late apoptotic cells at 0.1 uM after 24 hrs by Annexin V-FITC/propidium iodide staining based flow cytometry (reference value: 2.97%); assay type: functional
[33] = Half life in rat liver microsomes in presence of NADPH by HPLC analysis; assay type: ADME, microsome
[34] = Metabolic stability in rat liver microsomes assessed as parent compound remaining after 60 mins in presence of NADPH by HPLC analysis; assay type: ADME, microsome; details: read-out: Stability
A549 [35] = assay: Induction of apoptosis in human A549 cells assessed as genomic DNA fragmentation at 2.5 uM after 24 hrs by DAPI/TUNEL staining based spectrofluorometric method; assay type: functional, cell-based
NCI/ADR-RES = assay: Growth inhibition of human MCF7/ADR cells after 72 hrs by MTT assay; assay type: functional, cell-based
A549 [36] = assay: Effect on microtubule formation in human A549 cells assessed as morphological changes at 1 to 10 umol after 18 hrs; assay type: cell-based
[37] = Half life in dog liver microsomes in presence of NADPH by HPLC analysis; assay type: ADME, Canis lupus familiaris, microsome
HFF = assay: Cytotoxicity against HFF cells assessed as reduction in cell viability after 72 hrs by MTT assay; assay type: cell-based; details: Homo sapiens

Compound: COC(=O)[C@]1(C)CCC[C@]2(C)c3ccc(C(C)C)c(NC(=O)Cn4cc(-c5cccc(NC(=O)OC(C)(C)C)c5)nn4)c3CC[C@@H]12
- remaining at 0.5 h [1]: 85.4%
- selectivity ratio [2]: 8.4
- Activity (MDA-MB-231 [3]): Active
- half-life [4]: 1.76 h
- remaining at 3 h [5]: 31%
- remaining at 1.5 h [6]: 31.6%
- selectivity ratio [7]: 4.5
- IC50 [8]: 1100 nM
- remaining at 2.5 h [9]: 42.1%
- remaining at 2 h [10]: 58.4%
- Activity (MDA-MB-231 [11]): 16.75%
- remaining at 1.5 h [12]: 70.5%
- remaining at 2.5 h [13]: 25.7%
- selectivity ratio [14]: 5.4
- selectivity ratio [15]: 6.1
- IC50 (MDA-MB-231 [16]): 700 nM
- remaining at 1 h [17]: 59%
- selectivity ratio [18]: 7.9
- selectivity ratio [19]: 3.1
- Activity (MDA-MB-231 [20]): 7.57%
- IC50 (SK-BR-3): 900 nM
- remaining at 1 h [21]: 72.6%
- IC50 (U-251): 1800 nM
- remaining at 0.5 h [22]: 77.3%
- IC50 (HCT-116): 1000 nM
- IC50 (A549 [23]): 1300 nM
- Activity (MDA-MB-231 [24]): 4.32%
- IC50 (LNCaP): 600 nM
- Activity (MDA-MB-231 [25]): Active
- Stability [26]: 4.8%
- selectivity ratio [27]: 8.6
- logP [28]: 6.07
- Activity (MDA-MB-231 [29]): 7.01%
- Activity (MDA-MB-231 [30]): Active
- remaining at 1.5 h [31]: 61.3%
- Activity (MDA-MB-231 [32]): 9.91%
- half-life [33]: 2.19 h
- remaining at 1 h [34]: 79.3%
- Activity (A549 [35]): Active
- IC50 (NCI/ADR-RES): 900 nM
- growth inhibition (GI) (NCI/ADR-RES): Dose-dependent effect
- Activity (A549 [36]): inactive
- t1/2 [37]: 1.16 h
- IC50 (HFF): 5400 nM

Source: ChEMBL document CHEMBL4130367, “Click chemistry-based synthesis and anticancer activity evaluation of novel C-14 1,2,3-triazole dehydroabietic acid hybrids” (Eur J Med Chem, 2017)
